Reference: ChEMBL document CHEMBL1201862, “PubChem BioAssay data set” (2004)
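Tested at 5 concentrations; 48 h exposure; 96-well plates; endpoints linearly interpolated, else capped at highest concentration. Abbreviation: GI50, concentration required for 50% inhibition of growth.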 The source made the active and inactive calls. Rule as the data show it: active = GI50 up to about 1.1 µM and inactive = higher.

Key:
Test in all cases: NCI anticancer screen, dose series, 48 h
A549 = tested on: A549
ACHN = tested on: ACHN
CCRF-CEM = tested on: CCRF-CEM
DMS-114 = tested on: DMS-114
EKVX = tested on: EKVX
HCT-116 = tested on: HCT-116
HL-60 = tested on: HL-60
HOP-92 = tested on: HOP-92
IGROV-1 = tested on: IGROV-1
KM12 = tested on: KM12
MOLT-4 = tested on: MOLT-4
NCI-H23 = tested on: NCI-H23
NCI-H522 = tested on: NCI-H522
OVCAR-5 = tested on: OVCAR-5
RXF 393 = tested on: RXF 393
RXF 631 = tested on: RXF 631
SF-268 = tested on: SF-268
SK-MEL-28 = tested on: SK-MEL-28
SK-OV-3 = tested on: SK-OV-3
SNB-19 = tested on: SNB-19
SNB-78 = tested on: SNB-78
SR = tested on: SR
TK-10 = tested on: TK-10
U-251 = tested on: U-251
UACC-62 = tested on: UACC-62
UO-31 = tested on: UO-31
786-0 = tested on: 786-0
A498 = tested on: A498
CAKI-1 = tested on: CAKI-1
COLO 205 = tested on: COLO 205
DLD-1 = tested on: DLD-1
DMS-273 = tested on: DMS-273
HCC 2998 = tested on: HCC 2998
HCT-15 = tested on: HCT-15
HOP-18 = tested on: HOP-18
HOP-62 = tested on: HOP-62
HT-29 = tested on: HT-29
K562 = tested on: K562
KM-20L2 = tested on: KM-20L2
LXFL 529 = tested on: LXFL 529
M14 = tested on: M14
M19-MEL = tested on: M19-MEL
Malme-3M = tested on: Malme-3M
NCI-H226 = tested on: NCI-H226
NCI-H460 = tested on: NCI-H460
OVCAR-3 = tested on: OVCAR-3
OVCAR-4 = tested on: OVCAR-4
OVCAR-8 = tested on: OVCAR-8
RPMI-8226 = tested on: RPMI-8226
SF-295 = tested on: SF-295
SF-539 = tested on: SF-539
SK-MEL-2 = tested on: SK-MEL-2
SK-MEL-5 = tested on: SK-MEL-5
SN12C = tested on: SN12C
SNB-75 = tested on: SNB-75
SW-620 = tested on: SW-620
UACC-257 = tested on: UACC-257
XF498 = tested on: XF498

Measured: GI50

C=CC1C2=C(C(=O)NCC2)C2OC(O)C3=C(CCNC3=O)C2C1C (configuration not stated)
inactive: A549 > 100 µM | ACHN > 100 µM | CCRF-CEM > 100 µM | DMS-114 > 100 µM | EKVX > 100 µM | HCT-116 > 100 µM | HL-60 > 100 µM | HOP-92 > 100 µM | IGROV-1 > 100 µM | KM12 > 100 µM | MOLT-4 > 100 µM | NCI-H23 > 100 µM | NCI-H522 > 100 µM | OVCAR-5 > 100 µM | RXF 393 > 100 µM | RXF 631 > 100 µM | SF-268 > 100 µM | SK-MEL-28 > 100 µM | SK-OV-3 > 100 µM | SNB-19 > 100 µM | SNB-78 > 100 µM | SR > 100 µM | TK-10 > 100 µM | U-251 > 100 µM | UACC-62 > 100 µM | UO-31 > 100 µM

COc1ccc(C(=O)C(C(=O)CCC(=O)Nc2cccc(C(F)(F)F)c2)c2ccccc2)cc1 (configuration not stated)
inactive: 786-0 > 100 µM | A498 > 100 µM | A549 65.9 µM | ACHN 80.7 µM | CAKI-1 > 100 µM | CCRF-CEM 46.8 µM | COLO 205 > 100 µM | DLD-1 > 100 µM | DMS-114 36.2 µM | DMS-273 > 100 µM | EKVX > 100 µM | HCC 2998 > 100 µM | HCT-116 80.7 µM | HL-60 61.2 µM | HOP-18 > 100 µM | HOP-62 > 100 µM | HOP-92 53.6 µM | HT-29 65.6 µM | IGROV-1 > 100 µM | K562 54 µM | KM-20L2 > 100 µM | KM12 > 100 µM | LXFL 529 62.2 µM | M14 > 100 µM | M19-MEL 67.5 µM | MOLT-4 43.1 µM | Malme-3M > 100 µM | NCI-H226 > 100 µM | NCI-H23 44.8 µM | NCI-H460 > 100 µM | NCI-H522 32.1 µM | OVCAR-3 80 µM | OVCAR-4 37.7 µM | OVCAR-5 > 100 µM | OVCAR-8 > 100 µM | RPMI-8226 55.2 µM | SF-268 > 100 µM | SF-295 93.5 µM | SF-539 > 100 µM | SK-MEL-28 > 100 µM | SK-MEL-2 96.8 µM | SK-MEL-5 33.2 µM | SK-OV-3 > 100 µM | SN12C > 100 µM | SNB-19 > 100 µM | SNB-75 > 100 µM | SNB-78 > 100 µM | SR 62.7 µM | SW-620 > 100 µM | TK-10 > 100 µM | U-251 > 100 µM | UACC-257 62.7 µM | UACC-62 91.8 µM | UO-31 55.1 µM | XF498 54.1 µM
78.5 µM: HCT-15
